# Data reported in PMC9090415, “Discovery of small molecule inhibitors of Plasmodium falciparum apicoplast DNA polymerase” (Journal of Enzyme Inhibition and Medicinal Chemistry, 2022).
# Biological target: P. falciparum apicoplast DNA polymerase (Pf-apPOL) (Plasmodium falciparum, UniProt Q8ILY1)
# Assay: Fluorescence-based high-throughput DNA polymerase assay (molecular beacon), primary screen and dose-response
# Assay type: biochemical
# Details: for DNA Pol: 90 min, 10 µM; for % inhibition apPOL 180' 2.5 / % inhibition apPOL 180' 5 / % inhibition apPOL 180' 10 / % inhibition apPOL 180' 20 / % inhibition apPOL 180' 40 / % inhibition apPOL 180' 80: read at 180'
# Method in brief: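 Single-point screening used 10 µM compound with 20 nM polymerase, 20 nM hairpin substrate and 6 µM dNTPs for 90 min at 25 °C. Confirmatory titrations (2.5–80 µM) followed fluorescence at three times, and IC50 was derived from a fit including a cooperativity term n.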
# Chain of P. falciparum apicoplast DNA polymerase (Pf-apPOL) (Q8ILY1 entry or part of it): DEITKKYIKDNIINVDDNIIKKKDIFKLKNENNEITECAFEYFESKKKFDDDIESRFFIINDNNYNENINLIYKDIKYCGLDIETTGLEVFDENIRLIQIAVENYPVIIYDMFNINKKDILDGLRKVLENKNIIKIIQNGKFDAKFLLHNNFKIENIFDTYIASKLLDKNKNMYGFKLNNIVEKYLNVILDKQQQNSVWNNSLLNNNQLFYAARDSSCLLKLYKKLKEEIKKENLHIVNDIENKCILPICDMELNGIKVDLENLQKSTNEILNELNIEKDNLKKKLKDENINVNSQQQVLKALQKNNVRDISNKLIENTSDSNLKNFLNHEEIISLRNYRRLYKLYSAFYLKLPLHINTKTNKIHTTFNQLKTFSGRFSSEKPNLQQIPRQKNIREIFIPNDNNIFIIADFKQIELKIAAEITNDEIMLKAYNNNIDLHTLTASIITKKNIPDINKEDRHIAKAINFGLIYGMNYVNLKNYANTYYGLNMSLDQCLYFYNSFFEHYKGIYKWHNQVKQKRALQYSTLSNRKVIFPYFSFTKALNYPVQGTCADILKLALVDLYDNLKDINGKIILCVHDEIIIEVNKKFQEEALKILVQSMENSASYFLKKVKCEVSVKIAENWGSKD
smiles,measurement,setting,value
"CC(NC(=O)Cc1cc(=O)[nH]c(SCc2cccc(Cl)c2)n1)c1ccccc1 (stereo not drawn) [Molecule 67, O=C(NC(c1ccccc1)C)Cc1nc(SCc2cccc(c2)Cl)[nH]c(=O)c1]",DNA Pol,'DNA Pol' of the 186 hits list (primary screen value),46
same,DNA Pol,DNA Pol (primary screen value),46
same,% inhibition Apo pol 10',"DRC-1, concentration 2.5",-1.6671%
same,% inhibition Apo pol 10',"DRC-1, concentration 5",0%
same,% inhibition Apo pol 10',"DRC-1, concentration 10",11.4347%
same,% inhibition Apo pol 10',"DRC-1, concentration 20",48.0532%
same,% inhibition Apo pol 10',"DRC-1, concentration 40",64.8608%
same,% inhibition Apo pol 10',"DRC-1, concentration 80",85.5547%
same,% inhibition Apol 90',"DRC-1, concentration 2.5",-5.257%
same,% inhibition Apol 90',"DRC-1, concentration 5",-6.461%
same,% inhibition Apol 90',"DRC-1, concentration 10",1.923%
same,% inhibition Apol 90',"DRC-1, concentration 20",26.5805%
same,% inhibition Apol 90',"DRC-1, concentration 40",38.5858%
same,% inhibition Apol 90',"DRC-1, concentration 80",80.0323%
same,% inhibition apPOL 180',"DRC-1, concentration 2.5",-10.8024%
same,% inhibition apPOL 180',"DRC-1, concentration 5",-10.8936%
same,% inhibition apPOL 180',"DRC-1, concentration 10",-3.791%
same,% inhibition apPOL 180',"DRC-1, concentration 20",10.3203%
same,% inhibition apPOL 180',"DRC-1, concentration 40",18.891%
same,% inhibition apPOL 180',"DRC-1, concentration 80",71.4283%
same,% inhibition Apo pol 5',"DRC-2, concentration 2.5",0.743%
same,% inhibition Apo pol 5',"DRC-2, concentration 5",-0.394%
same,% inhibition Apo pol 5',"DRC-2, concentration 10",30%
same,% inhibition Apo pol 5',"DRC-2, concentration 20",33%
same,% inhibition Apo pol 5',"DRC-2, concentration 40",27%
same,% inhibition Apo pol 5',"DRC-2, concentration 80",20%
same,% inhibition Apol 40',"DRC-2, concentration 2.5",0.551%
same,% inhibition Apol 40',"DRC-2, concentration 5",0.92%
same,% inhibition Apol 40',"DRC-2, concentration 10",36%
same,% inhibition Apol 40',"DRC-2, concentration 20",49%
same,% inhibition Apol 40',"DRC-2, concentration 40",52%
same,% inhibition Apol 40',"DRC-2, concentration 80",55%
same,% inhibition ApPOL 90',"DRC-2, concentration 2.5",0.178%
same,% inhibition ApPOL 90',"DRC-2, concentration 5",-1%
same,% inhibition ApPOL 90',"DRC-2, concentration 10",32%
same,% inhibition ApPOL 90',"DRC-2, concentration 20",48%
same,% inhibition ApPOL 90',"DRC-2, concentration 40",54%
same,% inhibition ApPOL 90',"DRC-2, concentration 80",64%
same,% inhibition apPOL 180',"DRC-2, concentration 2.5",-3%
same,% inhibition apPOL 180',"DRC-2, concentration 5",-6%
same,% inhibition apPOL 180',"DRC-2, concentration 10",20%
same,% inhibition apPOL 180',"DRC-2, concentration 20",37%
same,% inhibition apPOL 180',"DRC-2, concentration 40",49%
same,% inhibition apPOL 180',"DRC-2, concentration 80",70%
"Cc1cc2[nH]c(C(=O)Nc3ccc(F)cc3)c(CN3CCOCC3)c2s1 [Molecule 60, Fc1ccc(cc1)NC(=O)c1[nH]c2c(c1CN1CCOCC1)sc(c2)C]",DNA Pol,"186 hits, DNA Pol (screen value), unit not given",24
same,DNA Pol,"'DNA Pol' (screen value), unit not given",24
same,% inhibition Apo pol 10' 2.5,"DRC-1, read at 10', concentration 2.5",-2.4883%
same,% inhibition Apo pol 10' 5,"DRC-1, read at 10', concentration 5",6.203%
same,% inhibition Apo pol 10' 10,"DRC-1, read at 10', concentration 10",25.0572%
same,% inhibition Apo pol 10' 20,"DRC-1, read at 10', concentration 20",44.6815%
same,% inhibition Apo pol 10' 40,"DRC-1, read at 10', concentration 40",69.9494%
same,% inhibition Apo pol 10' 80,"DRC-1, read at 10', concentration 80",76.8011%
same,% inhibition Apol 90' 2.5,"DRC-1, read at 90', concentration 2.5",-5.041%
same,% inhibition Apol 90' 5,"DRC-1, read at 90', concentration 5",0.952%
same,% inhibition Apol 90' 10,"DRC-1, read at 90', concentration 10",13.5518%
same,% inhibition Apol 90' 20,"DRC-1, read at 90', concentration 20",29.567%
same,% inhibition Apol 90' 40,"DRC-1, read at 90', concentration 40",56.5635%
same,% inhibition Apol 90' 80,"DRC-1, read at 90', concentration 80",73.0205%
same,% inhibition apPOL 180' 2.5,"DRC-1, concentration 2.5",-7.929%
same,% inhibition apPOL 180' 5,"DRC-1, concentration 5",-4.0377%
same,% inhibition apPOL 180' 10,"DRC-1, concentration 10",4.226%
same,% inhibition apPOL 180' 20,"DRC-1, concentration 20",14.1958%
same,% inhibition apPOL 180' 40,"DRC-1, concentration 40",39.4222%
same,% inhibition apPOL 180' 80,"DRC-1, concentration 80",63.0707%
same,% inhibition Apo pol 5',"DRC-2, concentration 40",38%
same,% inhibition ApPOL 90',"DRC-2, concentration 20",38%
same,% inhibition Apo pol 5' 2.5,"DRC-2, read at 5', concentration 2.5",-2.34%
same,% inhibition Apo pol 5' 5,"DRC-2, read at 5', concentration 5",3.5%
same,% inhibition Apo pol 5' 10,"DRC-2, read at 5', concentration 10",20%
same,% inhibition Apo pol 5' 20,"DRC-2, read at 5', concentration 20",33%
same,% inhibition Apo pol 5' 40,"DRC-2, read at 5', concentration 40",38%
same,% inhibition Apo pol 5' 80,"DRC-2, read at 5', concentration 80",36%
same,% inhibition Apol 40' 2.5,"DRC-2, read at 40', concentration 2.5",0.384%
same,% inhibition Apol 40' 5,"DRC-2, read at 40', concentration 5",3.72%
same,% inhibition Apol 40' 10,"DRC-2, read at 40', concentration 10",21%
same,% inhibition Apol 40' 20,"DRC-2, read at 40', concentration 20",40%
same,% inhibition Apol 40' 40,"DRC-2, read at 40', concentration 40",57%
same,% inhibition Apol 40' 80,"DRC-2, read at 40', concentration 80",60%
same,% inhibition ApPOL 90' 2.5,"DRC-2, read at 90', concentration 2.5",0.312%
same,% inhibition ApPOL 90' 5,"DRC-2, read at 90', concentration 5",2.6%
same,% inhibition ApPOL 90' 10,"DRC-2, read at 90', concentration 10",18%
same,% inhibition ApPOL 90' 20,"DRC-2, read at 90', concentration 20",38%
same,% inhibition ApPOL 90' 40,"DRC-2, read at 90', concentration 40",59%
same,% inhibition ApPOL 90' 80,"DRC-2, read at 90', concentration 80",65%
same,% inhibition apPOL 180' 2.5,"DRC-2, concentration 2.5",-2.7%
same,% inhibition apPOL 180' 5,"DRC-2, concentration 5",-0.247%
same,% inhibition apPOL 180' 10,"DRC-2, concentration 10",11%
same,% inhibition apPOL 180' 20,"DRC-2, concentration 20",28%
same,% inhibition apPOL 180' 40,"DRC-2, concentration 40",53%
same,% inhibition apPOL 180' 80,"DRC-2, concentration 80",66%
